Assay results taken from US20260097083A1, “METHOD FOR PRODUCING PANCREATIC ENDODERM CELLS” (Kyoto University, priority 2022, published 2026).
Counter-ions that a name gives are not always drawn.

Tests used:
[1] = test system: PDX1+/NKX6.1+ pancreatic endoderm cells derived from human iPS cells; assay: Examination of other ROCK inhibitors for proliferating pancreatic endoderm cells; type: cell-based; details: 1 week, FIGS. 3-B and 3-C
Procedure: FIG. 3-A A schematic diagram illustrating an experiment of examining other ROCK inhibitors. […] After the elapse of one week, the cells were counted under a fluorescence microscope.
Cells were differentiated to a pancreatic endoderm cell level using a stepwise differentiation-inducing method, and were then re-seeded on a 24-well plate at 2×10^5/well. The following culture media were added to these cultured cells, and the cells were cultured for 1 week. The culture medium for the Control group was improved MEM to which 0.5×B-27 Supplement, 100 U/ml penicillin/streptomycin, 100 ng/ml KGF/FGF7, 50 ng/ml EGF, and 10 mM nicotinamide had been added. […] After fixed using 4% PFA, the cells were subjected to β-gal staining and NKX6.1 antibody immunostaining, and fluorescently stained images were acquired using BZ-800 (Keyence). The number of NKX6.1-positive cells, the NKX6.1-positive ratio, and the β-gal-positive ratio were calculated using the BZ-H4CM/Macro Cell Count function of that microscope. FIGS. 2-A and 3-A show the outline of this procedure.
The experiments were conducted in the same manner as in Example 1. FIGS. 3-B and 3-C show the results.

[2] = test system: NKX6.1-positive pancreatic endoderm cells derived from human iPS cells; assay: Screening of senescence-related reagents; type: cell-based
Procedure: FIG. 2-A A schematic diagram illustrating senescence-related reagent screening. […] After the elapse of one week, the cells were counted under a fluorescence microscope. Cells were differentiated to a pancreatic endoderm cell level using a stepwise differentiation-inducing method, and were then re-seeded on a 24-well plate at 2×10^5/well. The following culture media were added to these cultured cells, and the cells were cultured for 1 week. […] After fixed using 4% PFA, the cells were subjected to β-gal staining and NKX6.1 antibody immunostaining, and fluorescently stained images were acquired using BZ-800 (Keyence). The number of NKX6.1-positive cells, the NKX6.1-positive ratio, and the β-gal-positive ratio were calculated using the BZ-[…]/Macro Cell Count function of that microscope. FIGS. 2-A and 3-A show the outline of this procedure. A reagent enabling proliferation of pancreatic endoderm cells derived from human iPS cells was searched for in the senescence-related reagents. […] Then, (1) the number of NKX6.1-positive cells, or (2) the ratio of NKX6.1-positive cells and the ratio of β gal-positive cells were measured after the culture. FIGS. 2-B to 2-D show the results.

[3] = test system: pancreatic endoderm cells (NKX6.1-positive); details: added to medium containing Y-27632 50 μM, 6 days, FIG. 7
Procedure: The cells on Day 21 of expansion culture were cultured for 6 days using a culture medium obtained by adding various growth factors and small-molecule compounds to a culture medium for expansion culture containing Y-27632. The other conditions were the same as those of the screening of senescence-related reagents.
After passaged three times using a culture medium to which Y-27632 (50 μM) had been added, pancreatic endoderm cells were seeded on a 24-well plate coated with iMatrix at 2.0×10^5 cells/well. Each of screening reagents was added to the culture medium containing Y-27632 (50 μM), and then the cells were cultured. After 6 days, the ratio of NKX6.1-positive cells was checked through cell immunostaining.

| Compound | effect of proliferating pancreatic endoderm cells (total cells, NKX6.1-positive cells) [1] | other results |
| --- | --- | --- |
| CC1=C(C(=O)Nc2cc3cn[nH]c3cc2F)C(c2ccc(C(F)(F)F)cc2)CC(=O)N1 (centres unmarked) [GSK429286A] | exhibited the effect of proliferating pancreatic endoderm cells | – |
| O=S(=O)(c1cccc2cnccc12)N1CCCNCC1 [Fasudil hydrochloride] | exhibited the effect of proliferating pancreatic endoderm cells | – |
| CC1(C)CCC(c2ccc(Cl)cc2)=C(CN2CCN(c3ccc(C(=O)NS(=O)(=O)c4ccc(N[C@H](CCN5CCOCC5)CSc5ccccc5)c(S(=O)(=O)C(F)(F)F)c4)cc3)CC2)C1 [ABT263] | – | ratio of β gal-positive cells (senescent cells) ([2]; 1 week, FIG. 2-D): reduction in the ratio of β gal-positive cells; cause inferred for the reduction in β gal-positive ratio ([2]; inferred from FIG. 2-B and 2-D): toxicity |
| CCn1c(-c2nonc2N)nc2cnc(Oc3cccc(NC(=O)c4ccc(OCCN5CCOCC5)cc4)c3)cc21 [GSK269962] | exhibited the effect of proliferating pancreatic endoderm cells | – |
| Cc1cccc(-c2n[nH]cc2-c2ccc3ncccc3n2)n1 [ALK5 inhibitor, 2-[3-[6-methylpyridin-2-yl]-1H-pyrazol-4-yl]-1,5-naphthyridine] | – | ratio of NKX6.1-positive cells (screening outcome) [3]: identified as candidates for a factor for improving expansion culture |
| O=C(NCc1ccccc1)c1csc(Nc2ccncn2)n1 [Thiazovivin] | exhibited the effect of proliferating pancreatic endoderm cells | – |
| Cc1cncc2cccc(S(=O)(=O)N3CCCNC[C@@H]3C)c12 [H1152] | exhibited the effect of proliferating pancreatic endoderm cells | – |
